Results published in PubChem BioAssay (NCI).
≈ marks a conversion by molar mass, not a printed value.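 1) Cells in 96-well plates. 2) Compound, 48 h, 5 concentrations. 3) Linear interpolation between surrounding doses. 4) Unreached endpoint = highest concentration. Here, GI50 denotes the concentration required for 50% inhibition of growth. TGI denotes the concentration required for complete inhibition of growth.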

Tests used:
Experiment in all cases: DTP human tumour cell line panel, 48 h
RXF-631 renal = tested on: RXF-631 renal
M19-MEL melanoma = tested on: M19-MEL melanoma
SNB-78 CNS = tested on: SNB-78 CNS
XF 498 CNS = tested on: XF 498 CNS
KM20L2 colon = tested on: KM20L2 colon
MDA-N = tested on: MDA-N
HOP-18 NSCLC = tested on: HOP-18 NSCLC

SMILES: CC1=C(CC2C(=O)N(c3ccccc3)S(=O)(=O)NC2C)C(=O)N(c2ccccc2)S(=O)(=O)N1C (stereo not drawn)
- TGI (RXF-631 renal): > 100 µM
- TGI (M19-MEL melanoma): > 100 µM
- TGI (SNB-78 CNS): > 100 µM
- TGI (XF 498 CNS): > 100 µM
- TGI (KM20L2 colon): > 100 µM

SMILES: CCCC(S(=O)(=O)c1ccccc1)S(=O)(=O)c1ccccc1
- TGI (RXF-631 renal): > 100 µM
- TGI (M19-MEL melanoma): > 100 µM
- TGI (SNB-78 CNS): > 100 µM
- TGI (XF 498 CNS): > 100 µM
- TGI (KM20L2 colon): > 100 µM

SMILES: NC1=NC(=O)C(CC(=O)Nc2ccc(Cl)cc2Cl)S1 (stereo not drawn)
- TGI (M19-MEL melanoma): > 100 µM
- TGI (SNB-78 CNS): > 100 µM
- TGI (XF 498 CNS): > 100 µM
- TGI (KM20L2 colon): > 100 µM

SMILES: C1CSCCSCCCSCCSCCCSCCSCCCSCCSC1
- TGI (MDA-N): > 100 µM

SMILES: O=C1C=C(O)C(=Cc2c(O)cc(O)cc2O)C(O)=C1
- TGI (RXF-631 renal): > 100 µM
- TGI (HOP-18 NSCLC): > 100 µM
- TGI (M19-MEL melanoma): > 100 µM
- TGI (SNB-78 CNS): > 100 µM
- TGI (XF 498 CNS): > 100 µM
- TGI (KM20L2 colon): > 100 µM

SMILES: O=C1c2ccccc2N2OC3(N4CCCC4)CCCCC3C12c1ccccc1 (stereo not drawn)
- TGI (HOP-18 NSCLC): > 100 µM
- TGI (M19-MEL melanoma): 22 µM
- TGI (SNB-78 CNS): 33.9 µM
- TGI (XF 498 CNS): 41.1 µM
- TGI (KM20L2 colon): > 100 µM

SMILES: CC1=C(C(=O)Nc2ccc(Cl)c(Cl)c2)C(c2ccc([N+](=O)[O-])cc2)C(C(=O)Nc2ccc(Cl)c(Cl)c2)=C(C)N1
- TGI (RXF-631 renal): 6.69 µM
- TGI (HOP-18 NSCLC): 19.2 µM
- TGI (M19-MEL melanoma): 3.97 µM
- TGI (SNB-78 CNS): 26.7 µM
- TGI (XF 498 CNS): 4.38 µM
- TGI (KM20L2 colon): 4.3 µM

SMILES: c1ccc2c(c1)CCc1c-2n[nH]c1-c1[nH]nc2c1CCc1ccccc1-2
- TGI (RXF-631 renal): > 100 µM
- TGI (HOP-18 NSCLC): > 100 µM
- TGI (M19-MEL melanoma): > 100 µM
- TGI (SNB-78 CNS): > 100 µM
- TGI (XF 498 CNS): > 100 µM
- TGI (KM20L2 colon): > 100 µM

SMILES: COc1cc(C2(C)SCCCS2)cc(OC)c1OC
- TGI (RXF-631 renal): > 100 µM
- TGI (HOP-18 NSCLC): > 100 µM
- TGI (M19-MEL melanoma): > 100 µM
- TGI (KM20L2 colon): > 100 µM

SMILES: Nc1nc(N)c(CCCCc2ccccc2)c(N)n1
- TGI (M19-MEL melanoma): > 100 µM
- TGI (XF 498 CNS): > 100 µM
- TGI (KM20L2 colon): > 100 µM
- TGI (MDA-N): > 100 µM

SMILES: COc1ccc(OC(=O)CC2Cc3cc(OC)c(OC)c(OC)c3-c3ccc(SC)c(=O)cc32)cc1 (stereo not drawn)
- TGI (RXF-631 renal): > 100 µM
- TGI (M19-MEL melanoma): > 100 µM
- TGI (XF 498 CNS): 7.8 µM

SMILES: CCOc1ccc(NC(=O)CCc2nnc(SC)o2)cc1
- TGI (HOP-18 NSCLC): > 100 µM
- TGI (M19-MEL melanoma): > 100 µM
- TGI (SNB-78 CNS): > 100 µM
- TGI (KM20L2 colon): > 100 µM

SMILES: CC(=O)/C(=C\c1ccccc1O)C(=O)Nc1ccccc1C
- TGI (HOP-18 NSCLC): > 100 µM
- TGI (M19-MEL melanoma): > 100 µM
- TGI (SNB-78 CNS): 98.7 µM
- TGI (XF 498 CNS): 28.1 µM

SMILES: Cc1ccccc1-n1c(N)c(-c2nc3ccccc3[nH]2)sc1=S
- TGI (RXF-631 renal): 49.1 µM
- TGI (HOP-18 NSCLC): 72.8 µM
- TGI (M19-MEL melanoma): 50.5 µM
- TGI (SNB-78 CNS): 74.8 µM

SMILES: COc1ccc(-c2cc(=O)c3c(O)cccc3o2)c(OC)c1OC
- TGI (RXF-631 renal): > 100 µM
- TGI (M19-MEL melanoma): > 100 µM
- TGI (SNB-78 CNS): > 100 µM
- TGI (XF 498 CNS): > 100 µM
- TGI (KM20L2 colon): > 100 µM

SMILES: COc1ccc(-c2[nH]c3ccccc3c2CCNS(=O)(=O)c2ccc(C)cc2)cc1
- TGI (RXF-631 renal): > 10 µM
- TGI (HOP-18 NSCLC): > 10 µM
- TGI (M19-MEL melanoma): > 10 µM
- TGI (SNB-78 CNS): > 10 µM
- TGI (XF 498 CNS): > 10 µM
- TGI (KM20L2 colon): > 10 µM

SMILES: Cc1cccc(NC(=O)/C(=N\N)C(c2cnc3ccc([N+](=O)[O-])cc3n2)[N+](=O)[O-])c1C (stereo not drawn)
- TGI (RXF-631 renal): > 100 µM
- TGI (HOP-18 NSCLC): > 100 µM
- TGI (M19-MEL melanoma): > 100 µM
- TGI (XF 498 CNS): > 100 µM
- TGI (KM20L2 colon): > 100 µM

SMILES: Fc1cccc(F)c1C(Nc1nncs1)Nc1nncs1
- TGI (MDA-N): > 100 µM

SMILES: CC(=O)O[C@@H]1C[C@@]2(C)[C@@H]3CC=C4[C@@H](C[C@H](O)C(=O)C4(C)C)[C@]3(C)C(=O)C[C@]2(C)[C@H]1[C@@](C)(O)C(=O)/C=C/C(C)(C)OC(C)=O
- TGI (MDA-N): 14.8 µM

SMILES: O=C(NCCNCCO)c1cccc2ccc(-c3ccccc3)nc12
- TGI (RXF-631 renal): 12.1 µM
- TGI (HOP-18 NSCLC): 45.8 µM
- TGI (M19-MEL melanoma): 15.7 µM
- TGI (SNB-78 CNS): 29.1 µM

SMILES: O=C(O)CCNS(=O)(=O)c1ccc([N+](=O)[O-])cc1
- TGI (RXF-631 renal): > 100 µM
- TGI (HOP-18 NSCLC): > 100 µM
- TGI (M19-MEL melanoma): > 100 µM
- TGI (XF 498 CNS): > 100 µM
- TGI (KM20L2 colon): > 100 µM

SMILES: N#CNc1nc(N)c(-c2ccc(Cl)cc2)c(C(=O)Nc2nccs2)n1
- TGI (HOP-18 NSCLC): > 100 µM
- TGI (M19-MEL melanoma): > 100 µM
- TGI (SNB-78 CNS): > 100 µM
- TGI (XF 498 CNS): > 100 µM
- TGI (KM20L2 colon): > 100 µM

SMILES: Oc1cc(-n2cccn2)c(O)cc1-n1cccn1
- TGI (RXF-631 renal): > 100 µM
- TGI (HOP-18 NSCLC): > 100 µM
- TGI (M19-MEL melanoma): 51.1 µM
- TGI (SNB-78 CNS): > 68.7 µM
- TGI (XF 498 CNS): 32.7 µM
- TGI (KM20L2 colon): > 100 µM
- TGI (MDA-N): 33.5 µM

SMILES: COC(=O)C(C(=O)C(=O)Nc1ccc([N+](=O)[O-])cc1)c1nc2ccc([N+](=O)[O-])cc2[nH]c1=O (stereo not drawn)
- TGI (RXF-631 renal): > 100 µM
- TGI (HOP-18 NSCLC): > 100 µM
- TGI (M19-MEL melanoma): > 100 µM
- TGI (SNB-78 CNS): > 100 µM
- TGI (KM20L2 colon): > 100 µM

SMILES: N#CCN1C(=O)c2cc([N+](=O)[O-])cc3cc([N+](=O)[O-])cc(c23)C1=O
- TGI (RXF-631 renal): > 60.6 µM
- TGI (HOP-18 NSCLC): > 100 µM
- TGI (M19-MEL melanoma): 37.7 µM
- TGI (SNB-78 CNS): > 58 µM
- TGI (XF 498 CNS): 25 µM
- TGI (KM20L2 colon): 23.6 µM

SMILES: O=Cc1ccc2c(c1I)OCO2
- TGI (HOP-18 NSCLC): > 100 µM
- TGI (M19-MEL melanoma): > 100 µM
- TGI (SNB-78 CNS): > 100 µM
- TGI (KM20L2 colon): > 100 µM

SMILES: O=C(O)c1ccccc1NC(=S)c1ccccc1
- TGI (MDA-N): > 100 µM

SMILES: O=C(/C=C/c1ccc(Cl)c(Cl)c1)c1cccc2ccccc12
- TGI (RXF-631 renal): 33.1 µM
- TGI (HOP-18 NSCLC): 31.1 µM
- TGI (M19-MEL melanoma): 24.6 µM
- TGI (SNB-78 CNS): 26.8 µM
- TGI (KM20L2 colon): 17.7 µM

SMILES: O=C(Cc1nc2ccccc2o1)C(=O)Nc1cccc(C(F)(F)F)c1
- TGI (RXF-631 renal): > 100 µM
- TGI (HOP-18 NSCLC): > 100 µM
- TGI (M19-MEL melanoma): > 100 µM
- TGI (SNB-78 CNS): > 100 µM
- TGI (KM20L2 colon): > 100 µM

SMILES: Cc1cc2c(c(C(N)=O)c1C)-c1cc(Cl)cc(Cl)c1C2=O
- TGI (HOP-18 NSCLC): > 100 µM
- TGI (M19-MEL melanoma): > 100 µM
- TGI (SNB-78 CNS): > 100 µM
- TGI (KM20L2 colon): > 100 µM

SMILES: O=C1OC(=O)c2c1c(-c1ccccc1)nc1ccccc21
- TGI (RXF-631 renal): > 100 µM
- TGI (M19-MEL melanoma): > 100 µM
- TGI (SNB-78 CNS): > 100 µM
- TGI (XF 498 CNS): > 100 µM
- TGI (KM20L2 colon): > 100 µM

SMILES: Cc1cc(C)c(C2CNCc3cc4c(cc32)CNCC4c2c(C)cc(C)cc2C)c(C)c1 (stereo not drawn)
- GI50 (MDA-N): 2.05 µg/mL (≈ 4.83 µM)
- TGI (MDA-N): 4.3 µg/mL

SMILES: N[C@H](COCc1ccccc1)c1ccccc1
- TGI (HOP-18 NSCLC): > 89.8 µM
- TGI (M19-MEL melanoma): 64.3 µM
- TGI (SNB-78 CNS): > 100 µM
- TGI (XF 498 CNS): 48.3 µM
- TGI (KM20L2 colon): 75.8 µM

SMILES: CC(C)(C)c1cc2nc(c1)C(C(F)(F)F)(C(F)(F)F)OB(Br)OC2(C(F)(F)F)C(F)(F)F
- TGI (RXF-631 renal): 5.35 µM
- TGI (M19-MEL melanoma): 12.2 µM
- TGI (SNB-78 CNS): 1.56 µM
- TGI (XF 498 CNS): 6.91 µM
- TGI (KM20L2 colon): 1.25 µM

SMILES: CN=C1OC2(c3ccccc3)C3=C(OC(=NC)N2C)C(=O)OC3(c2ccccc2)N1C (stereo not drawn)
- TGI (MDA-N): > 100 µM
